# Measured values: ChEMBL document CHEMBL1201862, “PubChem BioAssay data set” (2004)
#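 Five concentrations, 48 hours, 96-well plates. GI50 = concentration required for 50% inhibition of growth.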 Activity calls are given as the source filed them. Cut-off read from the data, not from the text of the source: active = GI50 up to about 1.1 µM and inactive = higher.
# Columns and labels:
# Assay in all cases: growth of human tumour cells (NCI), 48 h
# [1] = tested on: DLD-1
# [2] = tested on: EKVX
# [3] = tested on: HCT-116
# [4] = tested on: HT-29
# [5] = tested on: MOLT-4
# [6] = tested on: NCI-H23
# [7] = tested on: OVCAR-3
# [8] = tested on: RPMI-8226
# [9] = tested on: RXF 393
# [10] = tested on: SK-MEL-28
# [11] = tested on: SK-MEL-5
# [12] = tested on: SK-OV-3
# [13] = tested on: SN12C
# [14] = tested on: SW-620
# [15] = tested on: U-251
# [16] = tested on: UACC-257
# [17] = tested on: UO-31
# [18] = tested on: MDA-MB-231
# [19] = tested on: MDA-MB-435
# [20] = tested on: PC-3
Structure (SMILES),GI50 [1],GI50 [2],GI50 [3],GI50 [4],GI50 [5],GI50 [6],GI50 [7],GI50 [8],GI50 [9],GI50 [10],GI50 [11],GI50 [12],GI50 [13],GI50 [14],GI50 [15],GI50 [16],GI50 [17],GI50 [18],GI50 [19],GI50 [20]
CCOc1ccc(/C(Cl)=C(\C=O)c2ccc(OC)c(OC)c2)cc1OCC,68.7 µM (inactive),65.2 µM (inactive),33.8 µM (inactive),41.1 µM (inactive),27.9 µM (inactive),23.3 µM (inactive),> 100 µM (inactive),28.1 µM (inactive),31.4 µM (inactive),> 100 µM (inactive),22.5 µM (inactive),> 100 µM (inactive),44.6 µM (inactive),83.9 µM (inactive),32.9 µM (inactive),32.3 µM (inactive),53 µM (inactive),–,–,–
COc1cc(C2C(Cl)C(=O)N2NC(=O)Cc2ccccc2)ccc1O (stereo unspecified),> 100 µM (inactive),> 100 µM (inactive),45.6 µM (inactive),73.3 µM (inactive),24.6 µM (inactive),45.1 µM (inactive),33.3 µM (inactive),32.6 µM (inactive),59 µM (inactive),> 100 µM (inactive),69.7 µM (inactive),> 100 µM (inactive),> 100 µM (inactive),68.4 µM (inactive),79.3 µM (inactive),> 100 µM (inactive),22.6 µM (inactive),–,–,–
CC(C)[C@H](COC(C)(C)C)/N=C/N1CSc2ccccc21,48.4 µM (inactive),44.1 µM (inactive),27.6 µM (inactive),28.9 µM (inactive),36.1 µM (inactive),36.5 µM (inactive),23 µM (inactive),20.4 µM (inactive),28.7 µM (inactive),72.3 µM (inactive),25.1 µM (inactive),29 µM (inactive),28.1 µM (inactive),35.4 µM (inactive),32.5 µM (inactive),–,96.2 µM (inactive),–,–,–
CN(C)CCCCCNc1c2ccccc2nc2cccc([N+](=O)[O-])c12,0.00342 µM (active),0.00402 µM (active),0.00074 µM (active),0.0011 µM (active),0.000807 µM (active),0.000785 µM (active),0.00146 µM (active),0.00042 µM (active),0.0037 µM (active),0.00481 µM (active),0.00154 µM (active),0.00607 µM (active),0.00186 µM (active),0.000877 µM (active),0.0011 µM (active),0.00918 µM (active),–,0.00032 µM (active),0.0002 µM (active),0.000313 µM (active)
ClCc1ccc(C2OCCO2)cc1,17.2 µM (inactive),> 43.2 µM (inactive),> 35.6 µM (inactive),15.9 µM (inactive),13.8 µM (inactive),12.2 µM (inactive),22.3 µM (inactive),21.4 µM (inactive),> 45.7 µM (inactive),> 40.7 µM (inactive),24.8 µM (inactive),46.9 µM (inactive),16.6 µM (inactive),16.8 µM (inactive),12.2 µM (inactive),14.5 µM (inactive),> 40.7 µM (inactive),–,–,–
Cc1ccccc1NC(=O)/C=N/O,> 100 µM (inactive),22 µM (inactive),> 100 µM (inactive),> 100 µM (inactive),> 100 µM (inactive),> 100 µM (inactive),> 100 µM (inactive),> 100 µM (inactive),> 100 µM (inactive),> 100 µM (inactive),> 100 µM (inactive),> 100 µM (inactive),> 100 µM (inactive),> 100 µM (inactive),> 100 µM (inactive),> 100 µM (inactive),> 100 µM (inactive),–,–,–
COc1ccc(/C(Cl)=C(\C=O)c2ccc(OC)c(OC)c2)cc1OC,> 92 µM (inactive),> 100 µM (inactive),> 91.4 µM (inactive),41.6 µM (inactive),> 100 µM (inactive),76.6 µM (inactive),> 46.8 µM (inactive),70.3 µM (inactive),37.2 µM (inactive),> 94.6 µM (inactive),> 81.7 µM (inactive),> 100 µM (inactive),> 100 µM (inactive),> 100 µM (inactive),> 100 µM (inactive),41.7 µM (inactive),> 100 µM (inactive),> 100 µM (inactive),> 100 µM (inactive),> 100 µM (inactive)
COC(c1ccccc1)C(c1ccccc1)N1CCOCC1 (stereo unspecified),> 100 µM (inactive),> 100 µM (inactive),> 100 µM (inactive),> 100 µM (inactive),> 100 µM (inactive),> 100 µM (inactive),> 100 µM (inactive),49.7 µM (inactive),> 100 µM (inactive),> 100 µM (inactive),> 100 µM (inactive),> 100 µM (inactive),> 100 µM (inactive),> 100 µM (inactive),> 100 µM (inactive),> 100 µM (inactive),> 100 µM (inactive),–,–,–
O=C1C(Cl)C(c2ccccc2O)N1n1cnc2ccccc2c1=O (stereo unspecified),67 µM (inactive),23.9 µM (inactive),64.3 µM (inactive),87.3 µM (inactive),27.6 µM (inactive),49 µM (inactive),> 100 µM (inactive),6.75 µM (inactive),22.7 µM (inactive),70.1 µM (inactive),56.2 µM (inactive),25.1 µM (inactive),7.08 µM (inactive),58.7 µM (inactive),43.3 µM (inactive),46.7 µM (inactive),50 µM (inactive),–,–,–
O=C1Nc2ccccc2N=CC1NC(=O)C(c1ccccc1)c1ccccc1 (stereo unspecified),> 100 µM (inactive),> 100 µM (inactive),> 100 µM (inactive),> 100 µM (inactive),79.3 µM (inactive),> 100 µM (inactive),> 100 µM (inactive),> 100 µM (inactive),> 100 µM (inactive),> 100 µM (inactive),> 100 µM (inactive),> 100 µM (inactive),> 100 µM (inactive),> 100 µM (inactive),> 100 µM (inactive),> 100 µM (inactive),> 100 µM (inactive),–,–,–
Cc1ccccc1NC(=O)/C(=N\NC(N)=S)C(C#N)c1ccccc1 (stereo unspecified),> 100 µM (inactive),> 100 µM (inactive),> 100 µM (inactive),> 100 µM (inactive),> 100 µM (inactive),> 100 µM (inactive),> 100 µM (inactive),> 100 µM (inactive),> 100 µM (inactive),> 100 µM (inactive),> 100 µM (inactive),> 100 µM (inactive),> 100 µM (inactive),> 100 µM (inactive),> 100 µM (inactive),> 100 µM (inactive),> 100 µM (inactive),–,–,–
